Results on 22 compounds are retold here after patent US20240400584A1, “COMPOUNDS AND METHODS FOR MODULATING SPLICING” (REMIX THERAPEUTICS INC., priority 2021, published 2024).

For one assay, the system named is SMN2. Put plainly: Gene panel canonical junction qPCR assay, SMN2 CJ mRNA (Table 7). The following applies: Homo sapiens, read-out: SMN2 CJ mRNA decrease IC50. In kind it is cell-based. The essentials: (§1)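 A673/K562 cells + cpd → lysate → cDNA → qPCR, CY5 5′ nuclease probe set overlapping canonical junction. Normalized to GAPDH/GUSB/PPIA and DMSO via ΔΔCt, RQ → % response over fixed ΔCt window. IC50 = 50% CJ decrease, 4PL fit.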

Assay [1] has as its system HTT. Put plainly: Gene panel canonical junction qPCR assay, HTT CJ mRNA (Table 7). It counts as cell-based, human. Conditions: Homo sapiens, read-out: HTT CJ mRNA decrease IC50. The essentials:
as §1
Background: Real-time PCR tracks product formation cycle by cycle.

The subject of assay [2] is HTT. Put plainly: RT-qPCR splicing assay, HTT AJ/CJ mRNA. It counts as cell-based, human. Conditions: Homo sapiens, 24 h, A673 or K562 cells; for IC50: decrease in canonical junction mRNA; for AC50: increase in alternative junction mRNA. An outline of the steps:
(§2)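 Cells: A673 (DMEM/10% FBS) or K562 (IMDM/10% FBS). Dosing: 11-pt 3-fold, top 10 uM final, DMSO ≤0.25%, 24 h, 37° C. Readout: one-step RT-qPCR on lysate, CJ vs AJ isoforms; ΔCt vs housekeeper, ΔΔCt vs DMSO, 2^(−ΔΔCt) RQ → % response.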

A further assay has as its system MYB. Description: RT-qPCR splicing assay, MYB AJ/CJ mRNA. It counts as cell-based. The following applies: Homo sapiens, A673 or K562 cells, 24 hours; for IC50: decrease in canonical junction mRNA; for AC50: increase in alternative junction mRNA. The essentials:
as §2

For orientation: IC50 means the point on the concentration scale where inhibition reaches its midpoint. One may read the AC50 as the midpoint of the concentration-response curve, whichever way the signal moves. Read a high AC50 as weaker potency. On to `Cc1[nH]ncc1-c1ccc2c(c1)COc1nc(N(C)[C@@H]3C[C@H]4CC[C@@H](C3)N4)ccc1-2` [Compound 154], for which the IC50 in the assay with SMN2, in the assay with HTT [1], in the assay with HTT [2] and in the assay with MYB was 100 to 1000 nM in each case. For the same compound, the AC50 with HTT [2] was 100 to 1000 nM; in the assay on MYB it was less than 100 nM.

In the case of `Cc1ncc(-c2ccc3c(c2)COc2nc(N(C)[C@@H]4C[C@H]5CC[C@@H](C4)N5)ccc2-3)o1` [Compound 155], the IC50 in the assay with SMN2 is less than 100 nM; in the assay on HTT [1] it was less than 100 nM; in the assay with HTT [2], less than 100 nM; in the assay with MYB, 100 to 1000 nM. Also, the AC50 in the assay on HTT [2] is less than 100 nM; with MYB it was 100 to 1000 nM.

`COc1cc(-c2ccc3c(c2)COc2nc(N(C)[C@@H]4C[C@H]5CC[C@@H](C4)N5)ccc2-3)ccn1` [Compound 156]: the IC50 with SMN2 is 100 to 1000 nM; with HTT [1], less than 100 nM; in the assay on HTT [2], less than 100 nM; with MYB, 100 to 1000 nM. For the same compound, the concentration at half-maximal activity (AC50) in the assay with HTT [2] is less than 100 nM; in the assay with MYB, 100 to 1000 nM.

Turning to `CN(c1ccc2c(n1)OCc1cc(-c3ccc(=O)[nH]c3)ccc1-2)[C@@H]1C[C@H]2CC[C@@H](C1)N2` [Compound 157], the IC50 lay within 100 to 1000 nM in the assay on SMN2, 1000 to 10000 nM with HTT [1], 1000 to 10000 nM with HTT [2] and 1000 to 10000 nM with MYB. Moreover, the AC50 with HTT [2] and in the assay with MYB was 1000 to 10000 nM each time.

Take `CN(c1ccc2c(n1)OCc1cc(-c3ccc(=O)n(C)c3)ccc1-2)[C@@H]1C[C@H]2CC[C@@H](C1)N2` [Compound 158]: the IC50 in the assay with SMN2, in the assay with HTT [1], with HTT [2] and in the assay with MYB was 100 to 1000 nM in each case. Moreover, the AC50 in the assay with HTT [2] was 100 to 1000 nM; with MYB, 1000 to 10000 nM.

As to `COc1cc(-c2ccc3c(c2)COc2nc(N(C)[C@@H]4C[C@H]5CC[C@@H](C4)N5)ccc2-3)cnn1` [Compound 159], the concentration for half-maximal inhibition (IC50) with SMN2, with HTT [1], with HTT [2] and in the assay with MYB was less than 100 nM throughout. The AC50 in the assay on HTT [2] and with MYB was less than 100 nM throughout.

On to `CN(c1ccc2c(n1)OCc1cc(-c3cnn(C)c(=O)c3)ccc1-2)[C@@H]1C[C@H]2CC[C@@H](C1)N2` [Compound 160], for which the IC50 in the assay with SMN2 is less than 100 nM; in the assay on HTT [1], less than 100 nM; with HTT [2], less than 100 nM; in the assay on MYB, 100 to 1000 nM. For the same compound, the AC50 with HTT [2] and in the assay on MYB was less than 100 nM each time.

On to `CN(c1ccc2c(n1)OCc1cc(-c3cnc(=O)[nH]c3)ccc1-2)[C@@H]1C[C@H]2CC[C@@H](C1)N2` [Compound 161], for which the IC50 with SMN2, with HTT [1], in the assay on HTT [2] and in the assay on MYB was greater than 10000 nM each time. Besides, the concentration at half-maximal activity (AC50) in the assay on HTT [2] and in the assay with MYB was greater than 10000 nM each time.

As to `CN(c1ccc2c(n1)OCc1cc(-c3cc(=O)n(C)cn3)ccc1-2)[C@@H]1C[C@H]2CC[C@@H](C1)N2` [Compound 162], the 50% inhibitory concentration (IC50) with SMN2 was less than 100 nM; in the assay on HTT [1], less than 100 nM; in the assay on HTT [2], less than 100 nM; with MYB it was 100 to 1000 nM. Also, the half-maximal activity concentration (AC50) with HTT [2] and in the assay with MYB was less than 100 nM each time.

As for `CN(c1ccc2c(n1)OCc1cc(-n3ccnc3)ccc1-2)[C@@H]1C[C@H]2CC[C@@H](C1)N2` [Compound 163], the IC50 in the assay on SMN2 is less than 100 nM; with HTT [1], less than 100 nM; in the assay with HTT [2], less than 100 nM; with MYB it was 100 to 1000 nM. Moreover, the AC50 in the assay on HTT [2] and with MYB was less than 100 nM each time.

Consider `Cc1cn(-c2ccc3c(c2)COc2nc(N(C)[C@@H]4C[C@H]5CC[C@@H](C4)N5)ccc2-3)cn1` [Compound 164], for which the IC50 with SMN2 was less than 100 nM; in the assay on HTT [1], less than 100 nM; with HTT [2], less than 100 nM; in the assay with MYB, 100 to 1000 nM. Besides, the AC50 was less than 100 nM in the assay on HTT [2] and 100 to 1000 nM in the assay with MYB.

Turning to `CC1(C)CC(Nc2ccc3c(n2)OCc2cc(-n4cccn4)ccc2-3)CC(C)(C)N1` [Compound 165], the concentration for half-maximal inhibition (IC50) in the assay on SMN2 was less than 100 nM; in the assay with HTT [1], 100 to 1000 nM; in the assay with HTT [2], 100 to 1000 nM; with MYB, 1000 to 10000 nM. Also, the AC50 in the assay with HTT [2] and in the assay on MYB was 100 to 1000 nM throughout.

For `c1cnn(-c2ccc3c(c2)COc2nc(NC4CNC4)ccc2-3)c1` [Compound 166], the IC50 in the assay on SMN2 is 1000 to 10000 nM; in the assay on HTT [1], greater than 10000 nM; in the assay with HTT [2], greater than 10000 nM; with MYB, greater than 10000 nM. The AC50 with HTT [2] and with MYB was greater than 10000 nM each time.

Regarding `Cc1cnc(-c2ccc3c(c2)COc2nc(N(C)[C@@H]4C[C@H]5CC[C@@H](C4)N5)ccc2-3)o1` [Compound 206], the half-maximal inhibitory concentration (IC50) with SMN2, in the assay on HTT [1], with HTT [2] and in the assay on MYB was 100 to 1000 nM each time. The concentration at half-maximal activity (AC50) lay within 100 to 1000 nM in the assay on HTT [2] and 1000 to 10000 nM with MYB.

Consider `c1cc2c(cc1-c1cn[nH]c1)COc1nc(O[C@@H]3C[C@H]4CC[C@@H](C3)N4)ccc1-2` [Compound 218], for which the IC50 with SMN2 is less than 100 nM; in the assay on HTT [1] it was less than 100 nM; in the assay with HTT [2] it was less than 100 nM; in the assay with MYB it was 100 to 1000 nM. Besides, the AC50 in the assay on HTT [2] is less than 100 nM; with MYB, 100 to 1000 nM.

Consider `COc1cc(-c2ccc3c(c2)COc2nc(N4CCC(NC5(C)CCC5)C4)ccc2-3)cnn1` (stereo not drawn) [Compound 285, 1-[8-(6-methoxypyridazin-4-yl)-6H-isochromeno[3,4-b]pyridin-3-yl]-N-(1-methylcyclobutyl)pyrrolidin-3-amine], for which the IC50 is less than 100 nM in the assay with SMN2, less than 100 nM with HTT [1], less than 100 nM in the assay with HTT [2] and 100 to 1000 nM in the assay on MYB. In addition, the AC50 in the assay with HTT [2] and with MYB was 100 to 1000 nM in each case.

In the case of `CC(C)Oc1cnnc(-c2ccc3c(c2)COc2nc(N4CCC(NC(C)(C)C)C4)ccc2-3)c1` (stereo not drawn) [Compound 286], the IC50 in the assay with SMN2, with HTT [1], in the assay with HTT [2] and in the assay with MYB was greater than 10000 nM each time. Also, the AC50 in the assay on HTT [2] and with MYB was greater than 10000 nM each time.

Take `COc1cc(-c2ccc3c(c2)COc2nc(N4CCN[C@@H](C)C4)ccc2-3)cnn1` [Compound 287]: the IC50 in the assay with SMN2 lay within 100 to 1000 nM; with HTT [1] it was 100 to 1000 nM; in the assay with HTT [2], 100 to 1000 nM; with MYB, 1000 to 10000 nM. Besides, the half-maximal activity concentration (AC50) in the assay on HTT [2] was in the range of 100 to 1000 nM; in the assay on MYB, 1000 to 10000 nM.

Consider `COc1cc(-c2ccc3c(c2)COc2nc(O[C@@H]4C[C@H]5COC[C@@H](C4)N5)ccc2-3)cnn1` [Compound 290, (exo)-7-{[8-(6-methoxypyridazin-4-yl)-6H-isochromeno[3,4-b]pyridin-3-yl]oxy}-3-oxa-9-azabicyclo[3.3.1]nonane], for which the IC50 in the assay on SMN2 is less than 100 nM; in the assay with HTT [1], less than 100 nM; in the assay on HTT [2] it was less than 100 nM; with MYB, 100 to 1000 nM. Besides, the AC50 in the assay on HTT [2] and with MYB was 100 to 1000 nM each time.

With `COc1cc(-c2ccc3c(c2)COc2nc(N4CCC(N5CCCC5)C4)ccc2-3)cnn1` (stereo not drawn) [Compound 305], the IC50 fell in the range of 100 to 1000 nM with SMN2, 100 to 1000 nM in the assay on HTT [1], 100 to 1000 nM in the assay with HTT [2] and 1000 to 10000 nM in the assay with MYB. For the same compound, the AC50 in the assay with HTT [2] lay in the range of 100 to 1000 nM; in the assay with MYB it was 1000 to 10000 nM.

As to `COc1cc(-c2ccc3c(c2)COc2nc(N4CCC(N(C)C)C4)ccc2-3)cnn1` (stereo not drawn) [Compound 306, 1-[8-(6-methoxypyridazin-4-yl)-6H-isochromeno[3,4-b]pyridin-3-yl]-N,N-dimethylpyrrolidin-3-amine], the IC50 was in the range of 100 to 1000 nM in the assay with SMN2, 100 to 1000 nM in the assay on HTT [1], 100 to 1000 nM in the assay with HTT [2] and 1000 to 10000 nM in the assay on MYB. Also, the AC50 in the assay on HTT [2] and in the assay on MYB was 1000 to 10000 nM in each case.

For `COc1cc(-c2ccc3c(c2)COc2nc(N4CCC(N(C)C5CCC5)C4)ccc2-3)cnn1` (stereo not drawn) [Compound 307, N-cyclobutyl-1-[8-(6-methoxypyridazin-4-yl)-6H-isochromeno[3,4-b]pyridin-3-yl]-N-methylpyrrolidin-3-amine], the IC50 in the assay on SMN2 is less than 100 nM; with HTT [1], 100 to 1000 nM; in the assay on HTT [2], 100 to 1000 nM; in the assay with MYB, 1000 to 10000 nM. Moreover, the AC50 with HTT [2] and in the assay on MYB was 100 to 1000 nM in each case.
